According to PubChem BioAssay (NCI):
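Assay format: 96-well plates, 48-hour exposure. GI50 marks 50% less growth. TGI denotes the concentration required for complete inhibition of growth.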

Experiments:
Test in all cases: NCI-60 cell line screen, 48 h
[1] = test system: 786-0 renal
[2] = test system: A498 renal
[3] = test system: A549 NSCLC
[4] = test system: ACHN renal
[5] = test system: BT-549 breast
[6] = test system: CAKI-1 renal
[7] = test system: CCRF-CEM leukemia
[8] = test system: COLO 205 colon
[9] = test system: DU-145 prostate
[10] = test system: EKVX NSCLC
[11] = test system: HCC-2998 colon
[12] = test system: HCT-116 colon
[13] = test system: HCT-15 colon
[14] = test system: HL-60(TB) leukemia
[15] = test system: HOP-62 NSCLC
[16] = test system: HOP-92 NSCLC
[17] = test system: HS 578T breast
[18] = test system: HT29 colon
[19] = test system: IGROV1 ovarian
[20] = test system: K-562 leukemia
[21] = test system: KM12 colon
[22] = test system: LOX IMVI melanoma
[23] = test system: M14 melanoma
[24] = test system: MALME-3M melanoma
[25] = test system: MCF7 breast
[26] = test system: MDA-MB-231 breast
[27] = test system: MDA-MB-435
[28] = test system: MDA-MB-468 breast
[29] = test system: MOLT-4 leukemia
[30] = test system: NCI-H226 lung
[31] = test system: NCI-H23 lung
[32] = test system: NCI-H460 lung
[33] = test system: NCI-H522 lung
[34] = test system: NCI/ADR-RES ovarian
[35] = test system: OVCAR-3 ovarian
[36] = test system: OVCAR-4 ovarian
[37] = test system: OVCAR-5 ovarian
[38] = test system: OVCAR-8 ovarian
[39] = test system: PC-3 prostate
[40] = test system: RPMI-8226 leukemia
[41] = test system: RXF 393 renal
[42] = test system: SF-268 CNS
[43] = test system: SF-295 CNS
[44] = test system: SF-539 CNS
[45] = test system: SK-MEL-2 melanoma
[46] = test system: SK-MEL-28 melanoma
[47] = test system: SK-MEL-5 melanoma
[48] = test system: SK-OV-3 ovarian
[49] = test system: SN12C renal
[50] = test system: SNB-19 CNS
[51] = test system: SNB-75 CNS
[52] = test system: SR leukemia
[53] = test system: SW-620 colon
[54] = test system: T-47D breast
[55] = test system: TK-10 renal
[56] = test system: U251 CNS
[57] = test system: UACC-257 melanoma
[58] = test system: UACC-62 melanoma
[59] = test system: UO-31 renal

COc1ccc(OC)c(-c2cc(-c3c[nH]c4ccccc34)nc(N)c2C#N)c1
GI50 [1]: 2610 nM
TGI [1]: 9.13 µM
GI50 [2]: 8.86 µM
TGI [2]: 21.9 µM
GI50 [3]: 3.74 µM
TGI [3]: 27.5 µM
GI50 [4]: 4.92 µM
TGI [4]: 22.7 µM
GI50 [5]: 1960 nM
TGI [5]: 12.3 µM
GI50 [6]: 1510 nM
TGI [6]: 20.6 µM
GI50 [7]: 2400 nM
TGI [7]: 28.8 µM
GI50 [8]: 2810 nM
TGI [8]: 10.7 µM
GI50 [9]: 8.2 µM
TGI [9]: 27.5 µM
GI50 [10]: 1570 nM
TGI [10]: 16.4 µM
GI50 [11]: 2980 nM
TGI [11]: 13.9 µM
GI50 [12]: 2420 nM
TGI [12]: 13.2 µM
GI50 [13]: 903 nM
TGI [13]: 13.4 µM
GI50 [14]: 2420 nM
TGI [14]: 25.4 µM
GI50 [15]: 2880 nM
TGI [15]: 16.2 µM
GI50 [16]: 1300 nM
TGI [16]: 4.38 µM
GI50 [17]: 2170 nM
TGI [17]: 8.13 µM
GI50 [18]: 2740 nM
TGI [18]: 12.3 µM
GI50 [19]: 5.59 µM
TGI [19]: 23.1 µM
GI50 [20]: 881 nM
TGI [20]: 82.3 µM
GI50 [21]: 2710 nM
TGI [21]: 13.6 µM
GI50 [22]: 2950 nM
TGI [22]: 12.8 µM
GI50 [23]: 1600 nM
TGI [23]: 11.6 µM
GI50 [24]: 3.25 µM
TGI [24]: 16.7 µM
GI50 [25]: 135 nM
TGI [25]: 12.5 µM
GI50 [26]: 2060 nM
TGI [26]: 12.6 µM
GI50 [27]: 390 nM
TGI [27]: 1860 nM
GI50 [28]: 65.9 nM
TGI [28]: 369 nM
GI50 [29]: 3.84 µM
TGI [29]: 27 µM
GI50 [30]: 5.81 µM
TGI [30]: 20.5 µM
GI50 [31]: 2820 nM
TGI [31]: 15.2 µM
GI50 [32]: 1580 nM
TGI [32]: 13.2 µM
GI50 [33]: 736 nM
TGI [33]: 7.28 µM
GI50 [34]: 1220 nM
TGI [34]: 5.02 µM
GI50 [35]: 2940 nM
TGI [35]: 14.2 µM
GI50 [36]: 5.42 µM
TGI [36]: 25.3 µM
GI50 [37]: 5.94 µM
TGI [37]: 21.8 µM
GI50 [38]: 4.94 µM
TGI [38]: 18.2 µM
GI50 [39]: 1930 nM
TGI [39]: 15.5 µM
GI50 [40]: 1950 nM
TGI [40]: > 100 µM
GI50 [41]: 1770 nM
TGI [41]: 10.4 µM
GI50 [42]: 3.63 µM
TGI [42]: 19 µM
GI50 [43]: 3.43 µM
TGI [43]: 13 µM
GI50 [44]: 2900 nM
TGI [44]: 11.7 µM
GI50 [45]: 2390 nM
TGI [45]: 6.58 µM
GI50 [46]: 3.46 µM
TGI [46]: 17.8 µM
GI50 [47]: 804 nM
TGI [47]: 4.18 µM
GI50 [48]: 3.63 µM
TGI [48]: 18 µM
GI50 [49]: 5.06 µM
TGI [49]: 17.7 µM
GI50 [50]: 5.47 µM
TGI [50]: 19.3 µM
GI50 [51]: 1300 nM
TGI [51]: 5.14 µM
GI50 [52]: 539 nM
TGI [52]: 21.2 µM
GI50 [53]: 2900 nM
TGI [53]: 15.6 µM
GI50 [54]: 2180 nM
TGI [54]: 12.6 µM
GI50 [55]: 11.1 µM
TGI [55]: 33.7 µM
GI50 [56]: 3.2 µM
TGI [56]: 13.8 µM
GI50 [57]: 9.47 µM
TGI [57]: 21.5 µM
GI50 [58]: 2670 nM
TGI [58]: 13.5 µM
GI50 [59]: 3.9 µM
TGI [59]: 18.4 µM
